For one data set, the system named is SK-N-FI. Briefly: brain tumor cell line growth inhibition, SK-N-FI. As to conditions: Homo sapiens, neuroblastoma. The data set is classed as cell-based. As to the method:
(§1) These GI50s were determined using standard tumor growth inhibition assays.

A further data set concerns U87. Description: brain tumor cell line growth inhibition, U87. The format is cell-based. Particulars: Homo sapiens, U-87 MG; U87, glioblastoma; astrocytoma. The protocol:
as §1

The next data set concerns GL261. Description: brain tumor cell line growth inhibition, GL261. The format is cell-based. As to conditions: GL261, mouse glioblastoma. The protocol:
as §1

Data set [1] in a line: body weight in GL261 glioma survival study. The data set is classed as in vivo, C57BL/6 mice. The protocol: (§2) The studies were conducted in C57BL/6 mice. GL261 glioma cells (1×10^5 in 5 μl DMEM) were implanted intracranial coordinates: bregma, lateral 2.0 mm, anterior 1.2 mm, 3.0 mm depth dura. Treatment was initiated 3 days post implantation.
FIGS. 2A-F show the weight gain in each of the C57BL/6 mice in the different treatment groups. The average weight at endpoint for each of the treatment groups is shown below in Table 12. FIG. 3 is a graph showing the average weights over a 40-day period for each of the treatment groups.

Another data set deals with SK-N-MC. Description: brain tumor cell line growth inhibition, SK-N-MC. The format is cell-based. Particulars: Homo sapiens, neuroepithelioma. The protocol:
as §1

In the next data set the test system is SW1088. Description: brain tumor cell line growth inhibition, SW1088. The data set is classed as cell-based. As to conditions: Homo sapiens; SW1088, astrocytoma. The protocol: as §1
The next data set relates to Daoy. Briefly: brain tumor cell line growth inhibition, Daoy. The data set is classed as cell-based. Particulars: Homo sapiens, desmoplastic cerebellar medulloblastoma. The protocol: as §1
The next data set deals with LN-18. Description: brain tumor cell line growth inhibition, LN-18. The format is cell-based. Particulars: Homo sapiens; LN-18, glioblastoma; glioma. As to the method:
as §1

The next data set deals with c-Src 3T3 cells. Description: BrdU cell growth inhibition assay, c-Src 3T3. The format is cell-based, mouse. As to the method:
(§3) The GI50s for several of the compounds of the invention were assayed as described herein.
The c-Src 3T3 is a mouse fibroblast NIH 3T3 normal cell line that has been transfected with a point-mutant of human c-Src wherein tyrosine 527 has been converted to a phenylalanine. This mutation results in “constitutively active” c-Src because phosphorylation on tyrosine 527 results in auto-inhibition of Src by having it fold back on its own SH2 domain. With a Phe there, this phosphorylation can't occur and therefore auto-inhibition can't occur. Thus, the always fully active mutant Src then converts the normal mouse fibroblasts into rapidly growing tumor cells. […]
In the BrdU Assay for cell growth inhibition, quantitation of cell proliferation was based on the measurement of BrdU incorporation during DNA synthesis. […]
The growth inhibition (GI) is determined from the formula GI=(T0−Tn×100/T0−CONn) where T0 is the BrdU growth of untreated cells at time “0”, Tn is the BrdU growth of treated cells at day “n” and CONn is the control BrdU growth of control cells at day “n”. […]
Seeded 96 well plates were allowed to attach overnight for 18-24 hours, either at 37° C. and 5% CO2 for HT-29 or at 37° C. and 10% CO2 for c-Src 3T3. Approx 18-24 hours after seeding, the initial growth of cells (T0) was determined for untreated cells using the BrdU assay. […]

Another data set concerns HT29 cell line. Briefly: BrdU cell growth inhibition assay, HT-29. As to conditions: Homo sapiens. The data set is classed as cell-based. The protocol: as §3
The HT29 cell line is a NCI standard human colon carcinoma cell line. […] HT29 cells were routinely cultured in McCoy's 5A medium supplemented with Fetal Bovine Serum (1.5% v/v) and L-glutamine (2 mM).
In the BrdU Assay for cell growth inhibition, quantitation of cell proliferation was based on the measurement of BrdU incorporation during DNA synthesis. The Cell Proliferation ELISA BrdU assay kit (colorimetric) was obtained from Roche Applied Science and performed as per vendor instructions.
The growth inhibition (GI) is determined from the formula GI=(T0−Tn×100/T0−CONn) where T0 is the BrdU growth of untreated cells at time “0”, Tn is the BrdU growth of treated cells at day “n” and CONn is the control BrdU growth of control cells at day “n”. The GI50 was extrapolated and the data plotted using XL-Fit 4.0 software.
For 96 well culture plate experiments, c-Src 3T3 medium was supplemented with 10 mM HEPES buffer. […]
Seeded 96 well plates were allowed to attach overnight for 18-24 hours, either at 37° C. and 5% CO2 for HT-29 or at 37° C. and 10% CO2 for c-Src 3T3. Approx 18-24 hours after seeding, the initial growth of cells (T0) was determined for untreated cells using the BrdU assay. […] Plates were assayed for BrdU and the data analyzed as above for GI50. […]

Data set [2] has as its system lung cancer cell line H460. Description: standard tumor growth inhibition assay, H460. The data set is classed as cell-based. As to conditions: Homo sapiens, NCI-H460, read-out: GI50 (H460). The protocol:
(§4) These GI50's were determined using the standard tumor growth inhibition assays, similar to that described in detail for the HT29 cell line above, and the following cell lines: colon tumor cell lines KM12, lung cancer cell line H460 and lung cancer cell line A549 (all are NCI standard tumor cell lines).

Data set [3] concerns colon tumor cell lines KM12. Description: standard tumor growth inhibition assay, KM12. The format is cell-based. As to conditions: Homo sapiens, KM12, read-out: GI50 (KM12). The protocol:
as §4

In another data set the test system is GL261 glioma. Briefly: intracranial GL261 glioma survival study. The data set is classed as in vivo, C57BL/6 mice. As to conditions: 5 mg/kg weekly oral. The protocol:
as §2
The median survival range and the log-rank (Mantel-Cox) statistical test results comparing the survival distributions of the samples.

SMILES strings stand for the structures.

The values below come from patent US8748423B2, “Compositions and methods for the prevention and treatment of cancer” (Kinex Pharmaceuticals, LLC, priority 2010, dated 2014).

The IC50 is the concentration that gives 50% inhibition. Read a high IC50 as a need for much substance. `O=C(Cc1ccc(-c2ccc(OCCN3CCOCC3)cc2)cn1)NCc1ccccc1` [Compound 134, 2-(5-(4-(2-morpholinoethoxy)phenyl)pyridin-2-yl)-N-benzylacetamide]: the half-inhibitory concentration (IC50) is 1.7 nM in the data set with SK-N-FI; 33.1 nM in the data set with U87; 13.7 nM in the data set on GL261; 5.8 nM in the data set on SK-N-MC; 76.1 nM in the data set with SW1088; 13.6 nM in the data set on Daoy. In addition, the concentration for half-maximal inhibition (IC50) with LN-18 was determined as 14.5 nM. Besides, the “Average weight at endpoint” value in data set [1] (5 mg/kg (Compound 134, bid)) was 14.3 g.
With `O=C(Cc1ccc(-c2ccc(OCCN3CCOCC3)cc2)cn1)NCc1cccc(F)c1` [Compound 38], the “GI50 (c-Src 3T3)” value in the data set with c-Src 3T3 cells is “inactive”.
One may read the GI50 as the concentration that inhibits growth by half. In turn, `CN1CCN(CCOc2ccc(-c3ccc(CC(=O)NCc4cccc(F)c4)nc3)c(F)c2)CC1` [Compound 137] had a 50% growth inhibitory concentration (GI50) in the data set with HT29 cell line of 26 nM.
`O=C(Cc1ccc(-c2ccccc2)cc1)NCc1cccc(F)c1` [Compound 2]: the GI50 was found to be 890 nM in [2] and 410 nM in data set [3].
On to `Cn1nnc2c(C(N)=O)ncn2c1=O` [Temodar ®, reference compound], for which the “Average weight at endpoint” value in data set [1] (5 mg/kg (Temodar, once weekly)) came out at 13.3 g. Also, in the data set with GL261 glioma, the Median survival was determined as 29 and the “survival Range” value is recorded as 26-29.
